These results are taken from ChEMBL document CHEMBL1201862, “PubChem BioAssay data set” (2004).

Common to all, as to test: NCI tumour cell line growth inhibition, 48 h
The subject of test [1] is HL-60.
Test [2] concerns SF-268.
The subject of test [3] is NCI-H460.
In test [4] the test system is U-251.
Test [5] deals with UO-31.
For test [6], the system named is NCI-H226.
Test [7] deals with SR.
Test [8] has as its system 786-0.
For test [9], the system named is NCI-H522.
The test system of test [10] is HT-29.
In test [11] the test system is OVCAR-3.
Test [12] relates to M14.
The test system of test [13] is HCC 2998.
The subject of test [14] is DU-145.
In test [15] the test system is OVCAR-8.
Test [16] deals with HCT-15.
Test [17] has as its system OVCAR-5.
In test [18] the test system is OVCAR-4.
Test [19] relates to UACC-62.

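These data come from cells grown in 96-well plates and exposed to compound for 48 hours at five concentrations. Here, GI50 denotes the concentration required for 50% inhibition of growth.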 Activity calls are given as the source filed them. Cut-off read from the data, not from the text of the source: active = GI50 up to about 1.1 µM and inactive = higher. A value given as a limit tells only on which side of the number the result lay.

As to `COc1ccc(-c2cc(=O)c3c(OC)c(OC)c(OC)c(OC)c3o2)c(OC)c1`, the GI50 in [1] is 29.7 µM (inactive); in test [2], 51.5 µM (inactive); in test [3] it was 32.1 µM (inactive); in test [4], 30.8 µM (inactive); in test [5], 20.6 µM (inactive); in test [6], 31 µM (inactive). In addition, the GI50 in test [7] was > 100 µM (inactive); in [8] it was 32.3 µM (inactive); in [9], 12.9 µM (inactive); in [10] it was 24.2 µM (inactive); in [11] it was 13.4 µM (inactive); in test [12], 21 µM (inactive). The GI50 is 18.8 µM (inactive) in [13]; 30.4 µM (inactive) in test [14]; 21.9 µM (inactive) in test [15]; 25.6 µM in test [16]; 70.8 µM (inactive) in test [17]; 28.3 µM (inactive) in [18]. Also, the GI50 in test [19] was 16 µM (inactive).
On to `CCOC(=O)NC(Nc1ccc(F)c(F)c1)(C(=O)OCC)C(F)(F)F` (centres undefined), for which the GI50 in [1] was 20.4 µM (inactive); in test [2], > 100 µM (inactive); in test [3], > 100 µM (inactive); in test [4], > 100 µM (inactive); in test [5] it was > 65.6 µM (inactive); in test [6], > 100 µM (inactive). Besides, the GI50 is > 100 µM (inactive) in test [7]; > 100 µM (inactive) in [8]; > 100 µM (inactive) in [9]; > 100 µM (inactive) in test [10]; > 100 µM (inactive) in [11]; 0.826 µM (active) in [12]. Further, the GI50 was > 100 µM (inactive) in [13]; > 62.8 µM (inactive) in test [14]; 46 µM (inactive) in test [15]; > 100 µM in test [16]; > 100 µM (inactive) in test [17]; > 46.3 µM (inactive) in test [18]. The GI50 in [19] was 0.186 µM (active).
Turning to `CC(=O)OCc1cn(S(=O)(=O)c2ccc(C)cc2)cn1`, the GI50 is > 100 µM (inactive) in test [1]; 37.2 µM (inactive) in test [2]; 30.1 µM (inactive) in [3]; > 100 µM (inactive) in test [4]; > 100 µM (inactive) in [5]; > 100 µM (inactive) in [6]. Moreover, the GI50 in [7] was 9.51 µM (inactive); in test [8], > 100 µM (inactive); in test [9], 64 µM (inactive); in [10], 20.7 µM (inactive); in test [11], 24.2 µM (inactive); in [12], 25.3 µM (inactive). Moreover, the GI50 in test [13] was > 100 µM (inactive); in test [14], > 100 µM (inactive); in [15], > 100 µM (inactive); in [16], 18.5 µM; in test [18], > 100 µM (inactive); in [19], 75.2 µM (inactive).
For the compound `COC(=O)N[C@H](C(=O)O)C(C)O[Si](C)(C)C(C)(C)C` (some centres undefined), the GI50 in test [1], in test [2], in [3], in test [4], in [5] and in [6] was > 100 µM (inactive) each time. Moreover, the GI50 is > 100 µM (inactive) in test [7]; > 100 µM (inactive) in [8]; > 100 µM (inactive) in test [9]; > 100 µM (inactive) in test [10]; 7.08 µM (inactive) in test [11]; > 100 µM (inactive) in [13]. Besides, the GI50 in [14] is > 100 µM (inactive); in [15], > 100 µM (inactive); in [16] it was > 100 µM; in [17], > 100 µM (inactive); in test [18], > 100 µM (inactive); in test [19], > 100 µM (inactive).
